Laboratory results as given in US11536729B2, “Method of identifying novel protein aggregation inhibitors based on chemical kinetics” (Cambridge Enterprise Limited, priority 2016, dated 2022).

System: C. elegans CL2122 (control-worm)
Assay: C. elegans motility assay, control-worm model
Design: species or system Caenorhabditis elegans
Conditions: in vivo
Protocol: Standard conditions were used for Caenorhabditis elegans propagation at 20° C. (53). Briefly, animals were synchronized by hypochlorite bleaching, hatched overnight in M9 buffer, and subsequently cultured on nematode growth medium (NGM, USP agar) plates seeded with the E. coli strain OP50. Saturated cultures of OP50 were grown by inoculating 50 mL of LB medium with OP50 and incubating the culture for 16 h at 37° C. NGM plates were seeded with bacteria by adding 350 μl of saturated OP50 to each plate and leaving the plates at room temperature for 2-3 days. […]
All populations were cultured at 20° C. and developmentally synchronized from a 4 h egg-lay. At 64-72 h post egg-lay (time zero) individuals were shifted to 23° C. or 25° C., and body movement assessed over time as indicated. At different ages, animals were washed out of the plates with M9 and spread over an un-seeded 6 cm plate, after which their movements were recorded at 30 fps using a home-made microscopic setup, at 0.75× magnification, for 30 s or 1 min. 200 animals were counted per experiment unless stated otherwise. […]
Videos were elaborated using ImageJ (National Institutes of Health, Bethesda, Md., USA), and body bends were quantified using the wrMTrck plug-in (http://www.phage.dk/plugins/wrmtrck.html), developed by Jesper Søndergaard Pedersen.

## C=C(c1ccc(C(=O)O)cc1)c1cc2c(cc1C)C(C)(C)CCC2(C)C [bexarotene]
  effect in control-worm model: did not show any effects
